System: HeLa cells transfected with GR-GFP
Experiment: GR-GFP translocation assay for cytosolic access

effect of bafilomycin on TR (200 nM bafilomycin 1 h pretreatment, then 1 μM): did not alter
Structure (SMILES): C[C@@H]1C[C@H]2[C@@H]3CCC4=CC(=O)C=C[C@]4(C)[C@@]3(F)[C@@H](O)C[C@]2(C)[C@@]1(O)C(=O)CO [Dex, dexamethasone]
effect of EIPA on TR (50 μM EIPA 30 min pretreatment, then 1 μM 30 min 37°C): Neither EIPA nor dynasore blocked the increase
effect of dynasore on TR (80 μM dynasore 30 min pretreatment, then 1 μM 30 min 37°C): Neither EIPA nor dynasore blocked the increase
reduction of the increase in TR by MβCD (5 mM MβCD, 1 μM 30 min): 53%

Reference: paper PMC3488872 (Chemistry & biology, 2012)
